Measured values reported in patent US20220125051A1, “PRE-HARVEST DESICCATION METHOD” (SYNGENTA CROP PROTECTION AG, priority 2019, published 2022).

Columns and labels:
Test in all cases: Post-emergence efficacy, Method A
Assay type in all cases: in vivo
Details in all cases: evaluated after 13 days, Method A
[1] = test system: Amaranthus palmeri (AMAPA)
Summary of the method: (§1)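 Plants grown 14 days in glasshouse (24/16 °C, 14 h light, 65% humidity) were sprayed with compound formulated in IF50. The spray was diluted in 0.25% or 1% Empicol ESC70 plus 1% ammonium sulphate. Damage was scored 13 days later on a 0-100 scale, where 100 is total damage.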

[2] = test system: Chenopodium album (CHEAL)
Summary of the method: as §1

[3] = test system: Digitaria sanguinalis (DIGSA)
Summary of the method: as §1

[4] = test system: Echinochloa crus-galli (ECHCG)
Summary of the method: as §1

Eleusine indica (ELEIN) = test system: Eleusine indica (ELEIN)
Summary of the method: as §1

[5] = test system: Euphorbia heterophylla (EPHHL)
Summary of the method: as §1

[6] = test system: Ipomoea hederacea (IPOHE)
Summary of the method: as §1

Lolium perenne (LOLPE) = test system: Lolium perenne (LOLPE)
Summary of the method: as §1

Setaria faberi (SETFA) = test system: Setaria faberi (SETFA)
Summary of the method: as §1

[7] = Amaranthus palmeri, post-emergence, 312 h, Application Rate 500 g/Ha, read-out: Control of weed species after post-emergence application, AMAPA (100=total damage to plant; 0=no damage to plant)
[8] = Chenopodium album, post-emergence, 312 h, Application Rate 500 g/Ha, read-out: Control of weed species after post-emergence application, CHEAL (100=total damage to plant; 0=no damage to plant)
[9] = Digitaria sanguinalis, post-emergence, 312 h, Application Rate 500 g/Ha, read-out: Control of weed species after post-emergence application, DIGSA (100=total damage to plant; 0=no damage to plant)
[10] = Echinochloa crus-galli, post-emergence, 312 h, Application Rate 500 g/Ha, read-out: Control of weed species after post-emergence application, ECHCG (100=total damage to plant; 0=no damage to plant)
[11] = Eleusine indica, post-emergence, 312 h, Application Rate 500 g/Ha, read-out: Control of weed species after post-emergence application, ELEIN (100=total damage to plant; 0=no damage to plant)
[12] = Euphorbia heterophylla, post-emergence, 312 h, Application Rate 500 g/Ha, read-out: Control of weed species after post-emergence application, EPHHL (100=total damage to plant; 0=no damage to plant)
[13] = Ipomoea hederacea, post-emergence, 312 h, Application Rate 500 g/Ha, read-out: Control of weed species after post-emergence application, IPOHE (100=total damage to plant; 0=no damage to plant)
[14] = Lolium perenne, post-emergence, 312 h, Application Rate 500 g/Ha, read-out: Control of weed species after post-emergence application, LOLPE (100=total damage to plant; 0=no damage to plant)
[15] = Setaria faberi, post-emergence, 312 h, Application Rate 500 g/Ha, read-out: Control of weed species after post-emergence application, SETFA (100=total damage to plant; 0=no damage to plant)

| Structure (SMILES) | pest or weed control at 500 g/ha [1, 7] | pest or weed control at 500 g/ha [2, 8] | pest or weed control at 500 g/ha [3, 9] | pest or weed control at 500 g/ha [4, 10] | pest or weed control at 500 g/ha (Eleusine indica (ELEIN); [11]) | pest or weed control at 500 g/ha [5, 12] | pest or weed control at 500 g/ha [6, 13] | pest or weed control at 500 g/ha (Lolium perenne (LOLPE); [14]) | pest or weed control at 500 g/ha (Setaria faberi (SETFA); [15]) | other results |
| --- | --- | --- | --- | --- | --- | --- | --- | --- | --- | --- |
| CNS(=O)(=O)c1cnc(-c2cc[n+](CCC(=O)O)nc2)nc1 [Compound A209] |  |  |  |  |  |  |  |  |  | pest or weed control at 125 g/ha ([1]; Amaranthus palmeri, post-emergence, 312 h, Application Rate 125 g/Ha, read-out: Control of weed species after post-emergence application, AMAPA (100=total damage to plant; 0=no damage to plant)): 30%; pest or weed control at 125 g/ha ([2]; Chenopodium album, post-emergence, 312 h, Application Rate 125 g/Ha, read-out: Control of weed species after post-emergence application, CHEAL (100=total damage to plant; 0=no damage to plant)): 10%; pest or weed control at 125 g/ha ([3]; Digitaria sanguinalis, post-emergence, 312 h, Application Rate 125 g/Ha, read-out: Control of weed species after post-emergence application, DIGSA (100=total damage to plant; 0=no damage to plant)): 30%; pest or weed control at 125 g/ha ([4]; Echinochloa crus-galli, post-emergence, 312 h, Application Rate 125 g/Ha, read-out: Control of weed species after post-emergence application, ECHCG (100=total damage to plant; 0=no damage to plant)): 10%; pest or weed control at 125 g/ha (Eleusine indica (ELEIN); Eleusine indica, post-emergence, 312 h, Application Rate 125 g/Ha, read-out: Control of weed species after post-emergence application, ELEIN (100=total damage to plant; 0=no damage to plant)): 0%; pest or weed control at 125 g/ha ([5]; Euphorbia heterophylla, post-emergence, 312 h, Application Rate 125 g/Ha, read-out: Control of weed species after post-emergence application, EPHHL (100=total damage to plant; 0=no damage to plant)): 0%; pest or weed control at 125 g/ha ([6]; Ipomoea hederacea, post-emergence, 312 h, Application Rate 125 g/Ha, read-out: Control of weed species after post-emergence application, IPOHE (100=total damage to plant; 0=no damage to plant)): 0%; pest or weed control at 125 g/ha (Lolium perenne (LOLPE); Lolium perenne, post-emergence, 312 h, Application Rate 125 g/Ha, read-out: Control of weed species after post-emergence application, LOLPE (100=total damage to plant; 0=no damage to plant)): 10%; pest or weed control at 125 g/ha (Setaria faberi (SETFA); Setaria faberi, post-emergence, 312 h, Application Rate 125 g/Ha, read-out: Control of weed species after post-emergence application, SETFA (100=total damage to plant; 0=no damage to plant)): 20% |
| Nc1cc(-c2cc[n+](CCC(=O)O)nc2)ccn1 [Compound A210] | 70% | 10% | 60% | 10% | 20% | 10% | 10% | 20% | 30% |  |
| Cc1cc(-c2ncccn2)cn[n+]1CCS(=O)(=O)[O-] [Compound A212, 2-(6-methyl-4-pyrimidin-2-yl-pyridazin-1-ium-1-yl)ethanesulfonate] | 100% | 100% | 90% | 70% | 90% | 100% | 30% | 70% | 80% |  |
| CN(C)S(=O)(=O)[N-]C(=O)C[n+]1ccc(-c2ncccn2)cn1 [Compound A214, dimethylsulfamoyl-[2-(4-pyrimidin-2-ylpyridazin-1-ium-1-yl)acetyl]azanide] | 100% | 100% | 100% | 100% | 100% | 100% | 40% | 80% | 90% |  |
| O=S(=O)([O-])CCCC[n+]1ccc(-c2ncccn2)cn1 [Compound A215] | 100% | 60% | 60% | 30% | 30% | 90% | 60% | 20% | 20% |  |
| O=S(=O)([O-])OCCC[n+]1ccc(-c2ncccn2)cn1 [Compound A216] | 100% | 90% | 100% | 70% | 100% | 100% | 60% | 70% | 90% |  |
| CO[N-]C(=O)CC[n+]1ccc(-c2ncccn2)cn1 [Compound A218] | 100% | 80% | 70% | 60% | 60% | 80% | 70% | 70% | 60% |  |
| CO[N-]C(=O)C[n+]1ccc(-c2ncccn2)cn1 [Compound A219] | 100% | 80% | 70% | 40% | 100% | 90% | 60% | 70% | 90% |  |
| CC(C[n+]1ccc(-c2ncccn2)cn1)NS(=O)(=O)[O-] (stereo not drawn) [Compound A221] | 100% | 90% | 100% | 60% | 100% | 90% | 60% | 60% | 80% |  |
| CC(CNS(=O)(=O)[O-])[n+]1ccc(-c2ncccn2)cn1 (stereo not drawn) [Compound A223] | 100% | 90% | 90% | 70% | 90% | 80% | 60% | 80% | 80% |  |
| O=S(=O)([N-]CC[n+]1ccc(-c2ncccn2)cn1)C(F)(F)F [Compound A225] | 100% | 90% | 60% | 30% | 90% | 100% | 70% | 30% | 30% |  |
| N[C@H](CC[n+]1ccc(-c2ccncn2)cn1)C(=O)O [Compound A235] | 10% | 40% | 40% | 30% | 10% | 20% | 20% | 0% | 30% |  |
| O=P(O)(O)C[n+]1ccc(-c2ccncn2)cn1 [Compound A236] |  |  |  |  |  |  |  |  |  | Control of weed species after post-emergence application, AMAPA (100=total damage to plant; 0=no damage to plant) ([1]; Application Rate 500 g/Ha): 90; Control of weed species after post-emergence application, CHEAL (100=total damage to plant; 0=no damage to plant) ([2]; Application Rate 500 g/Ha): 20; Control of weed species after post-emergence application, DIGSA (100=total damage to plant; 0=no damage to plant) ([3]; Application Rate 500 g/Ha): 80; Control of weed species after post-emergence application, ECHCG (100=total damage to plant; 0=no damage to plant) ([4]; Application Rate 500 g/Ha): 50; Control of weed species after post-emergence application, ELEIN (100=total damage to plant; 0=no damage to plant) (Eleusine indica (ELEIN); Application Rate 500 g/Ha): 10; Control of weed species after post-emergence application, EPHHL (100=total damage to plant; 0=no damage to plant) ([5]; Application Rate 500 g/Ha): 30; Control of weed species after post-emergence application, IPOHE (100=total damage to plant; 0=no damage to plant) ([6]; Application Rate 500 g/Ha): 40; Control of weed species after post-emergence application, LOLPE (100=total damage to plant; 0=no damage to plant) (Lolium perenne (LOLPE); Application Rate 500 g/Ha): 0; Control of weed species after post-emergence application, SETFA (100=total damage to plant; 0=no damage to plant) (Setaria faberi (SETFA); Application Rate 500 g/Ha): 30 |
